Measurements taken from article PMC9950205, “Efficacy, safety, and pharmacokinetics of teduglutide in adult Japanese patients with short bowel syndrome and intestinal failure: two phase III studies with an extension” (Surgery Today, 2022).

Tested on: adult Japanese patients with SBS-IF
Experiment: Urine output, change from baseline
Type: in vivo, human
Settings: for 48 h urine output increase from baseline / 48 h urine output percent increase from baseline: 24 weeks
Description: As in the previous STEPS-1 study, patients participating in the core studies (TED-C14-004 and SHP633-306) underwent an optimization (2–8 weeks) and stabilization (4–8 weeks) period before initiation of treatment with teduglutide, during which PS was adjusted with the goal of achieving a stable target urine output of 1.0–2.0 L/day. All participating patients received teduglutide 0.05 mg/kg SC once daily throughout these three studies. PS was adjusted according to an algorithm based on the change from baseline in urine output and other assessments of fluid balance and nutrition status; the PS adjustment algorithm required reductions in PS if the urine output rose more than 10% above baseline. Patients had study visits at weeks 2 and 4, after which visits were held monthly during TED-C14-004 and SHP633-306. During SHP633-307, patients from SHP633-306 had monthly study visits throughout the 24 total months of treatment and then at 3-month intervals thereafter, and patients from TED-C14-004 had visits at 3-month intervals. The end-of-study assessments for SHP633-306 and TED-C14-004 were combined with the first visit of SHP633-307. SHP633-307 is ending soon with the approval of teduglutide in Japan.

[1] = 30 months, TED-C14-004, n = 7, mean ± SD
[2] = after 6 months, patients who advanced to SHP633-307 from SHP633-306, n = 4, mean ± SD
[3] = last visit before interim data cut-off of SHP633-307, patients from TED-C14-004, n = 7, mean ± SD

CC[C@H](C)[C@H](NC(=O)[C@H](Cc1ccccc1)NC(=O)[C@H](CC(=O)O)NC(=O)[C@H](CCCNC(=N)N)NC(=O)[C@H](C)NC(=O)[C@H](C)NC(=O)[C@H](CC(C)C)NC(=O)[C@H](CC(N)=O)NC(=O)[C@H](CC(=O)O)NC(=O)[C@H](CC(C)C)NC(=O)[C@@H](NC(=O)[C@@H](NC(=O)[C@H](CC(N)=O)NC(=O)[C@H](CCSC)NC(=O)[C@H](CCC(=O)O)NC(=O)[C@H](CC(=O)O)NC(=O)[C@H](CO)NC(=O)[C@H](Cc1ccccc1)NC(=O)[C@H](CO)NC(=O)CNC(=O)[C@H](CC(=O)O)NC(=O)CNC(=O)[C@@H](N)Cc1c[nH]cn1)[C@@H](C)O)[C@@H](C)CC)C(=O)N[C@@H](CC(N)=O)C(=O)N[C@@H](Cc1c[nH]c2ccccc12)C(=O)N[C@@H](CC(C)C)C(=O)N[C@H](C(=O)N[C@@H](CCC(N)=O)C(=O)N[C@H](C(=O)N[C@@H](CCCCN)C(=O)N[C@H](C(=O)N[C@H](C(=O)N[C@@H](CC(=O)O)C(=O)O)[C@@H](C)O)[C@@H](C)CC)[C@@H](C)O)[C@@H](C)CC [teduglutide]
48 h urine output increase from baseline (SHP633-306, n = 6, mean ± SD): 212.5 ± 265.9 mL/day | 48 h urine output percent increase from baseline (SHP633-306, n = 6, mean ± SD): 18.0% ± 23.9% | 48 h urine output increase from baseline (TED-C14-004, n = 9, mean ± SD): 226.7 ± 555.1 mL/day | 48 h urine output percent increase from baseline (TED-C14-004, n = 9, mean ± SD): 9.3% ± 22.4% | Urine output increase from baseline [1]: 306.0 ± 735.0 mL/day | Urine output percent increase from baseline [1]: 11.2% ± 24.6% | Urine output increase from baseline [2]: 345.0 ± 217.8 mL/day | Urine output percent increase from baseline [2]: 29.0 ± 21.6% | Mean urine output [3]: 1388.2 ± 507.8 mL/day | Urine output percent change from baseline [3]: −2.0% ± 35.3%
